For this data set, the system named is CCRIS mutagenicity, Ames/micronucleus/aberration tests. Description: CCRIS mutagenicity studies.
[1] abbreviates: Test System: AMES SALMONELLA TYPHIMURIUM, Strain/Indicator: TA98, Metabolic Activation: NONE, Method: PREINCUBATION
Where [2] appears, read: Test System: AMES SALMONELLA TYPHIMURIUM, Strain/Indicator: TA100, Metabolic Activation: NONE, Method: PREINCUBATION
[3] abbreviates: Test System: AMES SALMONELLA TYPHIMURIUM, Strain/Indicator: TA1535, Metabolic Activation: NONE, Method: PREINCUBATION

Activity calls are given as the source filed them. No rule for the calls is given here.

`O=C(O)CCCCCCCCC(=O)O`: the mutagenic call under setting [1] was “inactive; negative”; the mutagenic call (Test System: AMES SALMONELLA TYPHIMURIUM, Strain/Indicator: TA98, Metabolic Activation: RAT LIVER S-9, PHENOBARBITAL AND BETA-NAPHTHOFLAVONE, Method: PREINCUBATION) is “inactive; negative”; the mutagenic call (Test System: AMES SALMONELLA TYPHIMURIUM, Strain/Indicator: TA98, Metabolic Activation: RAT, LIVER, S-9, KC 500, Method: PREINCUBATION) was “inactive; negative”; the mutagenic call under setting [2] is “inactive; negative”; the mutagenic call (Test System: AMES SALMONELLA TYPHIMURIUM, Strain/Indicator: TA100, Metabolic Activation: RAT LIVER S-9, PHENOBARBITAL AND BETA-NAPHTHOFLAVONE, Method: PREINCUBATION) is “inactive; negative”; the mutagenic call (Test System: AMES SALMONELLA TYPHIMURIUM, Strain/Indicator: TA100, Metabolic Activation: RAT, LIVER, S-9, KC 500, Method: PREINCUBATION) is “inactive; negative”. The mutagenic call was “inactive; negative” under setting [3]; “inactive; negative” (Test System: AMES SALMONELLA TYPHIMURIUM, Strain/Indicator: TA1535, Metabolic Activation: RAT LIVER S-9, PHENOBARBITAL AND BETA-NAPHTHOFLAVONE, Method: PREINCUBATION); “inactive; negative” (Test System: AMES SALMONELLA TYPHIMURIUM, Strain/Indicator: TA1535, Metabolic Activation: RAT, LIVER, S-9, KC 500, Method: PREINCUBATION); “inactive; negative” (Test System: AMES SALMONELLA TYPHIMURIUM, Strain/Indicator: TA1537, Metabolic Activation: NONE, Method: PREINCUBATION); “inactive; negative” (Test System: AMES SALMONELLA TYPHIMURIUM, Strain/Indicator: TA1537, Metabolic Activation: RAT LIVER S-9, PHENOBARBITAL AND BETA-NAPHTHOFLAVONE, Method: PREINCUBATION); “inactive; negative” (Test System: AMES SALMONELLA TYPHIMURIUM, Strain/Indicator: TA1537, Metabolic Activation: RAT, LIVER, S-9, KC 500, Method: PREINCUBATION). The mutagenic call is “inactive; negative” (Test System: AMES SALMONELLA TYPHIMURIUM, Strain/Indicator: TA1538, Metabolic Activation: NONE, Method: PREINCUBATION); “inactive; negative” (Test System: AMES SALMONELLA TYPHIMURIUM, Strain/Indicator: TA1538, Metabolic Activation: RAT, LIVER, S-9, KC 500, Method: PREINCUBATION); “inactive; negative” (Test System: E. COLI, Strain/Indicator: WP2UVRA/PKM101, Metabolic Activation: NONE, Method: PREINCUBATION); “inactive; negative” (Test System: E. COLI, Strain/Indicator: WP2UVRA/PKM101, Metabolic Activation: RAT LIVER S-9, PHENOBARBITAL AND BETA-NAPHTHOFLAVONE, Method: PREINCUBATION); “inactive; negative” (Test System: E. COLI, Strain/Indicator: WP2 UVRA, Metabolic Activation: NONE, Method: PREINCUBATION); “inactive; negative” (Test System: E. COLI, Strain/Indicator: WP2 UVRA, Metabolic Activation: RAT, LIVER, S-9, KC 500, Method: PREINCUBATION).

In the case of `Nc1ncnc2c1ncn2[C@@H]1O[C@H](CO)C[C@@H]1F`, the mutagenic call reads like this: (Test System: Mouse lymphoma, Strain/Indicator: L5178Y (tk+/tk-), Metabolic Activation: None, Method: Suspension/plate) “inactive; negative”; (Test System: Mouse lymphoma, Strain/Indicator: L5178Y (tk+/tk-), Metabolic Activation: Rat, Liver, S-9, Aroclor 1254, Method: Suspension/plate) “active; equivocal (previous revaluation positive)”.

As to `CCC(C)(C)C`, the mutagenic call (Test System: AMES SALMONELLA TYPHIMURIUM, Strain/Indicator: TA97, Metabolic Activation: HAMSTER, LIVER, S-9, AROCLOR 1254 (10 OR 30%), Method: PREINCUBATION) was “inactive; negative”; the mutagenic call (Test System: AMES SALMONELLA TYPHIMURIUM, Strain/Indicator: TA97, Metabolic Activation: NONE, Method: PREINCUBATION) is “inactive; negative”; the mutagenic call (Test System: AMES SALMONELLA TYPHIMURIUM, Strain/Indicator: TA97, Metabolic Activation: RAT, LIVER, S-9, AROCLOR 1254 (10 OR 30%), Method: PREINCUBATION) was “inactive; negative”; the mutagenic call (Test System: AMES SALMONELLA TYPHIMURIUM, Strain/Indicator: TA98, Metabolic Activation: HAMSTER, LIVER, S-9, AROCLOR 1254 (10%), Method: PREINCUBATION) is “inactive; negative”; the mutagenic call (Test System: AMES SALMONELLA TYPHIMURIUM, Strain/Indicator: TA98, Metabolic Activation: HAMSTER, LIVER, S-9, AROCLOR 1254 (30%), Method: DESICCATOR) is “inactive; negative”; the mutagenic call (Test System: AMES SALMONELLA TYPHIMURIUM, Strain/Indicator: TA98, Metabolic Activation: HAMSTER, LIVER, S-9, AROCLOR 1254 (30%), Method: PREINCUBATION) is “inactive; negative”. The mutagenic call is, setting by setting: (Test System: AMES SALMONELLA TYPHIMURIUM, Strain/Indicator: TA98, Metabolic Activation: NONE, Method: DESICCATOR) “inactive; negative”; under setting [1], “inactive; negative”; (Test System: AMES SALMONELLA TYPHIMURIUM, Strain/Indicator: TA98, Metabolic Activation: RAT, LIVER, S-9, AROCLOR 1254 (10%), Method: PREINCUBATION) “inactive; negative”; (Test System: AMES SALMONELLA TYPHIMURIUM, Strain/Indicator: TA98, Metabolic Activation: RAT, LIVER, S-9, AROCLOR 1254 (30%), Method: DESICCATOR) “inactive; negative”; (Test System: AMES SALMONELLA TYPHIMURIUM, Strain/Indicator: TA98, Metabolic Activation: RAT, LIVER, S-9, AROCLOR 1254 (30%), Method: PREINCUBATION) “inactive; negative”; (Test System: AMES SALMONELLA TYPHIMURIUM, Strain/Indicator: TA100, Metabolic Activation: HAMSTER, LIVER, S-9, AROCLOR 1254 (10%), Method: PREINCUBATION) “inactive; negative”. Further, the mutagenic call was “inactive; negative” (Test System: AMES SALMONELLA TYPHIMURIUM, Strain/Indicator: TA100, Metabolic Activation: HAMSTER, LIVER, S-9, AROCLOR 1254 (30%), Method: DESICCATOR); “inactive; negative” (Test System: AMES SALMONELLA TYPHIMURIUM, Strain/Indicator: TA100, Metabolic Activation: HAMSTER, LIVER, S-9, AROCLOR 1254 (30%), Method: PREINCUBATION); “inactive; negative” (Test System: AMES SALMONELLA TYPHIMURIUM, Strain/Indicator: TA100, Metabolic Activation: NONE, Method: DESICCATOR); “inactive; negative” under setting [2]; “inactive; negative” (Test System: AMES SALMONELLA TYPHIMURIUM, Strain/Indicator: TA100, Metabolic Activation: RAT, LIVER, S-9, AROCLOR 1254 (10%), Method: PREINCUBATION); “inactive; negative” (Test System: AMES SALMONELLA TYPHIMURIUM, Strain/Indicator: TA100, Metabolic Activation: RAT, LIVER, S-9, AROCLOR 1254 (30%), Method: DESICCATOR). Further, the mutagenic call was “inactive; negative” (Test System: AMES SALMONELLA TYPHIMURIUM, Strain/Indicator: TA100, Metabolic Activation: RAT, LIVER, S-9, AROCLOR 1254 (30%), Method: PREINCUBATION); “inactive; negative” (Test System: AMES SALMONELLA TYPHIMURIUM, Strain/Indicator: TA1535, Metabolic Activation: HAMSTER, LIVER, S-9, AROCLOR 1254 (10 OR 30%), Method: PREINCUBATION); “inactive; negative” under setting [3]; “inactive; negative” (Test System: AMES SALMONELLA TYPHIMURIUM, Strain/Indicator: TA1535, Metabolic Activation: RAT, LIVER, S-9, AROCLOR 1254 (10 OR 30%), Method: PREINCUBATION).

With `CCCCN(CCCC)[N+](=O)[O-]`, the mutagenic call (Test System: E. COLI, Strain/Indicator: WP2 (HCR-), Metabolic Activation: RAT, LIVER, MICROSOMES, PHENOBARBITAL) was “active; positive”.

With `Cc1ccc2cc3c4c(ccc3c3c2c1C[C@H]3O)[C@@H](O)[C@H](O)C=C4`, the mutagenic call (Test System: CHINESE HAMSTER V-79, Strain/Indicator: V-79/8-AZAGUANINE, Metabolic Activation: RAT, LIVER, S-9, AROCLOR, Method: STANDARD PLATE) is “active; positive”.

(Values after PubChem BioAssay AID1259407 (Chemical Carcinogenesis Research Information System (CCRIS), 2018).)
